Assay results as given in PMC6835155, “Lessons from LIMK1 enzymology and their impact on inhibitor design” (Biochemical Journal, 2019).
Like-named read-outs stand apart in the source and are kept apart here.

How the values were obtained:
LIMK1KD = target: T1, LIMK1KD (Homo sapiens, UniProt P53667); experiment: Differential (dynamic) scanning fluorimetry (DSF) assay, LIMK1KD; type: binding; details: 2 µM LIMK1KD, compound 10 µM, single shot; for ΔTm at 10 µM: read-out: TM Shift LIMK1 (K)
T1 construct: His6 (N, cleaved yes); made in house; host or cells: baculovirus; Sf9 for virus, TriEx insect cells for expression

LIMK2KD = target: T2, LIMK2KD (Homo sapiens, UniProt P53671); experiment: Differential (dynamic) scanning fluorimetry (DSF) assay, LIMK2KD; type: binding
T2 construct: The cDNA coding for LIMK2 residues 330 to 632 was PCR amplified; His6 (N, cleaved yes); made in house; host or cells: baculovirus; Sf9 for virus, TriEx insect cells for expression

[1] = LIMK2KD, compound 10 µM, single shot
[2] = LIMK2KD, compound 10 µM, single shot, read-out: TM Shift LIMK2 (K)
[3] = LIMK2KD, compound 10 µM, single shot, 10 µM

T1 sequence (P53667 330-637): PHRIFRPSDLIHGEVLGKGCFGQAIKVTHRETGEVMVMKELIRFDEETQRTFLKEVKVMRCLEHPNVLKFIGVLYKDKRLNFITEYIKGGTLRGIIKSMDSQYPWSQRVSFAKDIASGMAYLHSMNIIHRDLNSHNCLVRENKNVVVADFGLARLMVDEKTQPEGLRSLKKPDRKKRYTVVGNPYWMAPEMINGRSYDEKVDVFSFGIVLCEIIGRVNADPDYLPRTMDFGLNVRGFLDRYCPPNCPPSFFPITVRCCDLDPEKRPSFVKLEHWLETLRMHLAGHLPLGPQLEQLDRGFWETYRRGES
T2 sequence (P53671 330-632): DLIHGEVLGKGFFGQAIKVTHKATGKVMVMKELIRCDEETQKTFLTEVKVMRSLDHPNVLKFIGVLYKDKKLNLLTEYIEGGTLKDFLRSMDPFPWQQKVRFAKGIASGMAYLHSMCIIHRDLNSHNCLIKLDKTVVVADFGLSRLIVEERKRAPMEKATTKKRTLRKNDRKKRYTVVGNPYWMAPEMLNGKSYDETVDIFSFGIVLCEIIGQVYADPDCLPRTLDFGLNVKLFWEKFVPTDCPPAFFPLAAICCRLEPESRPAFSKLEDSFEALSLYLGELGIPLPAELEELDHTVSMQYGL

| Compound | ΔTm at 10 µM (LIMK1KD) [°C] | ΔTm at 10 µM (LIMK2KD; [2]) [°C] | also measured |
| --- | --- | --- | --- |
| C=CC(=O)Nc1cccc(Nc2nc(Nc3ccc(Oc4ccnc(C(=O)NC)c4)cc3)ncc2F)c1 [CNX-774] | – | – | TM Shift LIMK1 (K) (LIMK1KD): 1.6 K; TM Shift LIMK2 (K) (LIMK2KD; [1]): 1.2 K |
| C=CC(=O)Nc1cccc(Nc2nc(Nc3ccc(N4CCN(C(C)=O)CC4)cc3OC)ncc2C(F)(F)F)c1 [CO-1686 (AVL-301)] | 0.4 | -0.4 | – |
| COCCOc1ccc2c(c1)ncn2-c1ccc2cccc(N3CCC(N)CC3)c2n1 [CP-673451] | 0.9 | 1.9 | – |
| COCC(=O)NC/C=C/c1ccc2ncnc(Nc3ccc(Oc4ccc(C)nc4)c(C)c3)c2c1 [CP-724714] | 0.4 | -0.8 | – |
| N#CCNC(=O)c1ccc(-c2ccnc(Nc3ccc(N4CCOCC4)cc3)n2)cc1 [CYT387] | – | – | TM Shift LIMK1 (K) (LIMK1KD): 1.2 K; TM Shift LIMK2 (K) (LIMK2KD; [3]): 0.8 K |
| COc1cc2nccc(Oc3ccc(NC(=O)C4(C(=O)Nc5ccc(F)cc5)CC4)cc3)c2cc1OC [Cabozantinib (XL184, BMS-907351), Cabozantinib] | 2.5 | 0.6 | – |
| C=CC(=O)Nc1cc2c(Nc3ccc(F)c(Cl)c3)ncnc2cc1OCCCN1CCOCC1 [Canertinib (CI-1033), Canertinib] | 0.9 | 0.5 | – |
| COc1cc2c(Oc3ccc4[nH]c(C)cc4c3F)ncnc2cc1OCCCN1CCCC1 [Cediranib (AZD2171), Cediranib] | -0.2 | 0.5 | – |
| Cc1cc(O)c2c(c1)C(=O)c1cccc(O)c1C2=O [Chrysophanic Acid] | 0.9 | 1.3 | – |
| CC1(COc2ccc3c(c2)ncn3-c2ccc3cccc(N4CCC(N)CC4)c3n2)COC1 [Crenolanib (CP-868596), Crenolanib] | 1 | 0.5 | – |
| C[C@@H](Oc1cc(-c2cnn(C3CCNCC3)c2)cnc1N)c1c(Cl)ccc(F)c1Cl [Crizotinib (PF-02341066), Crizotinib] | 3.9 | 1.4 | – |
| COc1cc2ncnc(Nc3ccc(F)c(Cl)c3)c2cc1NC(=O)/C=C/CN1CCCCC1 [Dacomitinib (PF299804, PF299), Dacomitinib] | 0.9 | 0.2 | – |
| Cn1c(=O)n(-c2ccc(C(C)(C)C#N)cc2)c2c3cc(-c4cnc5ccccc5c4)ccc3ncc21 [Dactolisib] | – | – | TM Shift LIMK1 (K) (LIMK1KD): 0.3 K; TM Shift LIMK1 (K) (LIMK1KD; listed as BEZ235 (NVP-BEZ235, Dactolisib)): -0.1 K; TM Shift LIMK2 (K) (LIMK2KD; [3]): -0.3 K; TM Shift LIMK2 (K) (LIMK2KD; LIMK2KD, compound 10 µM, single shot, listed as BEZ235 (NVP-BEZ235, Dactolisib), 10 µM): 0.1 K |
| CO[C@@H](C(=O)N1Cc2n[nH]c(NC(=O)c3ccc(N4CCN(C)CC4)cc3)c2C1)c1ccccc1 [Danusertib (PHA-739358), Danusertib] | 5 | 1 | – |
| Cc1nc(Nc2ncc(C(=O)Nc3c(C)cccc3Cl)s2)cc(N2CCN(CCO)CC2)n1 [Dasatinib] | 7 | – | ΔTm at 10 µM (LIMK2KD; read-out: TM Shift LIMK2 (K), LIMK2KD, compound 10 µM, single shot): 1.7 °C |
| CCC[C@H](NC(=O)/C(C#N)=C/c1cccc(Br)n1)c1ccccc1 [Degrasyn (WP1130), Degrasyn] | – | – | TM Shift LIMK1 (K) (LIMK1KD): -1.0 K; TM Shift LIMK2 (K) (LIMK2KD; [1]): 0.7 K |
| CCc1cnn2c(NCc3ccc[n+]([O-])c3)cc(N3CCCC[C@H]3CCO)nc12 [Dinaciclib (SCH727965), Dinaciclib] | -0.3 | 0.6 | – |
| Cc1ccc(-n2nc(C(C)(C)C)cc2NC(=O)Nc2ccc(OCCN3CCOCC3)c3ccccc23)cc1 [Doramapimod] | – | 0.9 | TM Shift LIMK1 (K) (LIMK1KD): -0.1 K; TM Shift LIMK1 (K) (LIMK1KD; listed as BIRB 796 (Doramapimod)): 0.5 K; TM Shift LIMK2 (K) (LIMK2KD; [3]): 0.7 K |
| CN1CCN(c2ccc3nc(-c4c(N)c5c(F)cccc5[nH]c4=O)[nH]c3c2)CC1 [Dovitinib (TKI-258) Dilactic Acid, Dovitinib] | 2.2 | 3.8 | – |
| CCn1c2ccccc2c2cc(Nc3ccnc(NCCCN4CCOCC4)n3)ccc21 [EHop-016] | – | – | TM Shift LIMK1 (K) (LIMK1KD): -0.1 K; TM Shift LIMK2 (K) (LIMK2KD; [1]): -0.7 K |
| CC(C)(C#N)c1ccc(N2C(=O)OCc3cnc4ccc(-c5cnc6ccccc6c5)cc4c32)cc1 [ETP-46464] | – | – | TM Shift LIMK1 (K) (LIMK1KD): -0.5 K; TM Shift LIMK2 (K) (LIMK2KD; [1]): -0.5 K |

Continued, in another order:

| ΔTm at 10 µM (LIMK1KD) [°C] | ΔTm at 10 µM (LIMK2KD; [2]) [°C] | Compound | also measured |
| --- | --- | --- | --- |
| 0.8 | 1.6 | C#Cc1cccc(Nc2ncnc3cc(OC)c(OCCCCCCC(=O)NO)cc23)c1 [CUDC-101] | – |
| 0.3 | -0.1 | COc1ccc(-c2nc(N3CCOCC3)c3sc(CN(C)c4ncc(C(=O)NO)cn4)cc3n2)cn1 [CUDC-907] | – |
| 3.7 | 1.6 | Cc1nc(N)sc1-c1ccnc(Nc2ccc(N3CCOCC3)cc2)n1 [CYC116] | – |
| -0.4 | -0.1 | CC(C)(C)NS(=O)(=O)c1cncc(-c2cc(F)c3nc(N)nn3c2)c1 [CZC24832] | – |
| 4.6 | 6 | Cc1cc(Nc2cc(N3CCN(C)CC3)nc(/C=C/c3ccccc3)n2)n[nH]1 [ENMD-2076] | – |
